Our source for the Relative luciferase response and Differentiated cells values is ChEMBL document CHEMBL1134065, “Structure-Activity study of retinoid agonists bearing substituted dicarba-closo-dodecaborane. Relation between retinoidal activity and conformation of two aromatic nuclei” (2001).

The target of experiment [1] is T1, Retinoic acid receptor gamma (Homo sapiens) (UniProt P13631).
T1 sequence (whole entry): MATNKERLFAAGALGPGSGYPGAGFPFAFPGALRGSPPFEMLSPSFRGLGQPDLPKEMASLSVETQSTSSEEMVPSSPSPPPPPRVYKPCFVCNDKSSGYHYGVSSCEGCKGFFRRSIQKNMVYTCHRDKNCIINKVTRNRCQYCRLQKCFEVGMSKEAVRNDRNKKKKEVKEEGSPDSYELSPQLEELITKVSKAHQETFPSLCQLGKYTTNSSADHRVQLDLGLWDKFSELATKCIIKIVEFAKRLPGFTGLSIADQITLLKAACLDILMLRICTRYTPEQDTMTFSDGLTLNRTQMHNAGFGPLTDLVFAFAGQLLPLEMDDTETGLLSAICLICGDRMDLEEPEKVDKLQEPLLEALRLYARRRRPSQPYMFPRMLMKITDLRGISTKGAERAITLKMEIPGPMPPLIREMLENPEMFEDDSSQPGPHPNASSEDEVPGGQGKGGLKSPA
As to the kind of experiment: Agonistic activity on Retinoic acid receptor gamma by transcriptional activation in COS-1 cells incubated at 10e-8 M. In kind it is functional, cell-based.

The target of experiment [2] is T1, Retinoic acid receptor gamma (Homo sapiens). Description: Agonistic activity on Retinoic acid receptor gamma by transcriptional activation in COS-1 cells incubated at 10e-6 M. It is filed as functional, cell-based.
Experiment [3] relates to HL-60. As to the kind of experiment: HL-60 differentiation-inducing activity at a dose of 10e-9 M. In kind it is functional, Homo sapiens.
Experiment [4] relates to HL-60. Description: HL-60 differentiation-inducing activity at a dose of 10e-7 M. In kind it is functional, Homo sapiens.
For experiment [5], the system named is HL-60. As to the kind of experiment: HL-60 differentiation-inducing activity at a dose of 10e-8 M. In kind it is functional, Homo sapiens.
The target in experiment [6] is T1, Retinoic acid receptor gamma (Homo sapiens). As to the kind of experiment: Agonistic activity on Retinoic acid receptor gamma by transcriptional activation in COS-1 cells incubated at 10e-7 M. In kind it is functional, cell-based.
For experiment [7] the target is unchanged. As to the kind of experiment: Agonistic activity on Retinoic acid receptor gamma by transcriptional activation in COS-1 cells incubated at 10e-9 M. It is filed as functional, cell-based.
The test system of experiment [8] is HL-60. Description: HL-60 differentiation-inducing activity at a dose of 10e-9.5 M. It is filed as functional, Homo sapiens.
The test system of experiment [9] is HL-60. Description: HL-60 differentiation-inducing activity at a dose of 10e-10 M. In kind it is functional, Homo sapiens.

The structures appear in SMILES notation.

Consider `CC1=C(/C=C/C(C)=C/C=C/C(C)=C/C(=O)O)C(C)(C)CCC1` [TRETINOIN], for which the Relative luciferase response was 12 in experiment [1], 30 in [2], 14 in experiment [6] and 6 in [7]. The Differentiated cells in experiment [3] is about 2%; in experiment [4], about 85%; in [5], about 70%.
As to `CC1(C)CCC(C)(C)c2cc(NC(=O)c3ccc(C(=O)O)cc3)ccc21` [TAMIBAROTENE], the Differentiated cells is about 40% in experiment [8], about 75% in experiment [3], about 5% in experiment [9] and about 85% in experiment [5].
